Source: ChEMBL document CHEMBL3045868, “Synthesis and antibacterial activities of para-alkoxy phenyl--ketoaldehyde derivatives” (Med Chem Res, 2013)
Values after ≈ are worked out from the molar mass of the structure shown.

Key:
Format in all cases: functional
Staphylococcus aureus [1] = test: Bactericidal activity against Staphylococcus aureus clinical isolate 8 after 24 hr; conditions: isolate 8, 24 h
Helicobacter pylori [2] = test: Antibacterial activity against Helicobacter pylori 06-6 assessed as growth inhibition after 16 to 18 hr NCCLS agar dilution method
Staphylococcus aureus [3] = test: Antibacterial activity against Staphylococcus aureus clinical isolate 20 assessed as growth inhibition at pH 7 after 16 to 18 hr by NCCLS agar dilution method
Staphylococcus aureus [4] = test: Antibacterial activity against Staphylococcus aureus clinical isolate 24 assessed as growth inhibition at pH 9 after 16 to 18 hr by NCCLS agar dilution method
Staphylococcus aureus [5] = test: Antibacterial activity against Staphylococcus aureus clinical isolate 21 assessed as growth inhibition at pH 9 after 16 to 18 hr by NCCLS agar dilution method
Helicobacter pylori [6] = test: Antibacterial activity against Helicobacter pylori 05-1 assessed as growth inhibition after 16 to 18 hr NCCLS agar dilution method
Staphylococcus aureus [7] = test: Antibacterial activity against Staphylococcus aureus clinical isolate 19 assessed as growth inhibition at pH 5 after 16 to 18 hr by NCCLS agar dilution method
Staphylococcus aureus [8] = test: Antibacterial activity against Staphylococcus aureus clinical isolate 3 assessed as growth inhibition at pH 5 after 16 to 18 hr by NCCLS agar dilution method
Staphylococcus aureus [9] = test: Antibacterial activity against Staphylococcus aureus clinical isolate 2 assessed as growth inhibition after 16 to 18 hr by NCCLS agar dilution method
Staphylococcus aureus [10] = test: Antibacterial activity against Staphylococcus aureus clinical isolate 7 assessed as growth inhibition at pH 9 after 16 to 18 hr by NCCLS agar dilution method
Staphylococcus aureus [11] = test: Antibacterial activity against Staphylococcus aureus clinical isolate 18 assessed as growth inhibition at pH 9 after 16 to 18 hr by NCCLS agar dilution method
Staphylococcus aureus [12] = test: Antibacterial activity against Staphylococcus aureus clinical isolate 10 assessed as growth inhibition after 16 to 18 hr by NCCLS agar dilution method
Staphylococcus aureus [13] = test: Antibacterial activity against Staphylococcus aureus clinical isolate 12 assessed as growth inhibition at pH 5 after 16 to 18 hr by NCCLS agar dilution method
Staphylococcus aureus [14] = test: Antibacterial activity against methicillin-resistant Staphylococcus aureus isolate 4 assessed as growth inhibition after 16 to 18 hr by NCCLS agar dilution method
Staphylococcus aureus [15] = test: Antibacterial activity against methicillin-resistant Staphylococcus aureus isolate 1 assessed as growth inhibition after 16 to 18 hr by NCCLS agar dilution method
Staphylococcus aureus [16] = test: Antibacterial activity against Staphylococcus aureus clinical isolate 23 assessed as growth inhibition at pH 7 after 16 to 18 hr by NCCLS agar dilution method
Staphylococcus aureus [17] = test: Antibacterial activity against Staphylococcus aureus clinical isolate 15 assessed as growth inhibition at pH 5 after 16 to 18 hr by NCCLS agar dilution method
Staphylococcus aureus [18] = test: Antibacterial activity against Staphylococcus aureus clinical isolate 13 assessed as growth inhibition at pH 9 after 16 to 18 hr by NCCLS agar dilution method
Staphylococcus aureus [19] = test: Antibacterial activity against Staphylococcus aureus clinical isolate 20 assessed as growth inhibition at pH 5 after 16 to 18 hr by NCCLS agar dilution method
Staphylococcus aureus [20] = test: Bactericidal activity against methicillin-resistant Staphylococcus aureus isolate 2 after 24 hr; conditions: isolate 2, 24 h
Staphylococcus aureus [21] = test: Bactericidal activity against methicillin-resistant Staphylococcus aureus isolate 5 after 24 hr; conditions: isolate 5, 24 h
Staphylococcus aureus [22] = test: Antibacterial activity against Staphylococcus aureus clinical isolate assessed as growth inhibition at pH 5 after 16 to 18 hr by NCCLS agar dilution method
Staphylococcus aureus [23] = test: Antibacterial activity against Staphylococcus aureus clinical isolate 16 assessed as growth inhibition at pH 9 after 16 to 18 hr by NCCLS agar dilution method
Staphylococcus aureus [24] = test: Antibacterial activity against Staphylococcus aureus clinical isolate 10 assessed as growth inhibition at pH 9 after 16 to 18 hr by NCCLS agar dilution method
Staphylococcus aureus [25] = test: Antibacterial activity against Staphylococcus aureus clinical isolate 16 assessed as growth inhibition at pH 5 after 16 to 18 hr by NCCLS agar dilution method
Staphylococcus aureus [26] = test: Antibacterial activity against Staphylococcus aureus clinical isolate 10 assessed as growth inhibition at pH 5 after 16 to 18 hr by NCCLS agar dilution method
Staphylococcus aureus [27] = test: Antibacterial activity against Staphylococcus aureus clinical isolate 6 assessed as growth inhibition at pH 9 after 16 to 18 hr by NCCLS agar dilution method
Helicobacter pylori [28] = test: Antibacterial activity against Helicobacter pylori 06-4 assessed as growth inhibition after 16 to 18 hr NCCLS agar dilution method
Helicobacter pylori [29] = test: Antibacterial activity against Helicobacter pylori 06-3 assessed as growth inhibition after 16 to 18 hr NCCLS agar dilution method
Staphylococcus aureus [30] = test: Antibacterial activity against Staphylococcus aureus clinical isolate 24 assessed as growth inhibition at pH 5 after 16 to 18 hr by NCCLS agar dilution method
Staphylococcus aureus [31] = test: Antibacterial activity against Staphylococcus aureus clinical isolate 8 assessed as growth inhibition after 16 to 18 hr by NCCLS agar dilution method
Helicobacter pylori [32] = test: Antibacterial activity against Helicobacter pylori ATCC 11637 assessed as growth inhibition after 16 to 18 hr NCCLS agar dilution method
Staphylococcus aureus [33] = test: Antibacterial activity against Staphylococcus aureus clinical isolate 8 assessed as growth inhibition at pH 7 after 16 to 18 hr by NCCLS agar dilution method
Staphylococcus aureus [34] = test: Antibacterial activity against Staphylococcus aureus clinical isolate 17 assessed as growth inhibition at pH 7 after 16 to 18 hr by NCCLS agar dilution method
Staphylococcus aureus [35] = test: Antibacterial activity against Staphylococcus aureus clinical isolate 4 assessed as growth inhibition after 16 to 18 hr by NCCLS agar dilution method
Helicobacter pylori [36] = test: Antibacterial activity against Helicobacter pylori 05-14 assessed as growth inhibition after 16 to 18 hr NCCLS agar dilution method
Staphylococcus aureus [37] = test: Antibacterial activity against Staphylococcus aureus clinical isolate 3 assessed as growth inhibition at pH 7 after 16 to 18 hr by NCCLS agar dilution method
Staphylococcus aureus [38] = test: Antibacterial activity against Staphylococcus aureus clinical isolate 11 assessed as growth inhibition at pH 7 after 16 to 18 hr by NCCLS agar dilution method
Staphylococcus aureus [39] = test: Antibacterial activity against Staphylococcus aureus clinical isolate 9 assessed as growth inhibition at pH 5 after 16 to 18 hr by NCCLS agar dilution method
Staphylococcus aureus [40] = test: Bactericidal activity against Staphylococcus aureus clinical isolate 7 after 24 hr; conditions: isolate 7, 24 h
Staphylococcus aureus [41] = test: Antibacterial activity against Staphylococcus aureus clinical isolate 4 assessed as growth inhibition at pH 7 after 16 to 18 hr by NCCLS agar dilution method
Staphylococcus aureus [42] = test: Antibacterial activity against Staphylococcus aureus clinical isolate 2 assessed as growth inhibition at pH 7 after 16 to 18 hr by NCCLS agar dilution method
Staphylococcus aureus [43] = test: Antibacterial activity against Staphylococcus aureus clinical isolate 2 assessed as growth inhibition at pH 5 after 16 to 18 hr by NCCLS agar dilution method

`CO/N=C/CC(=O)c1ccc(OC)cc1` showed an MBC (Staphylococcus aureus [1]) of 32 µg/mL (≈ 154 µM), an MIC (Helicobacter pylori [2]) of 16 µg/mL (≈ 77.2 µM) and an MIC (Staphylococcus aureus [3]) of 16 µg/mL (≈ 77.2 µM). For the same molecule, the MIC (Staphylococcus aureus [4]) was 8 µg/mL (≈ 38.6 µM), the MIC (Staphylococcus aureus [5]) was 8 µg/mL (≈ 38.6 µM) and the MIC (Helicobacter pylori [6]) was 32 µg/mL (≈ 154 µM). It also gave an MIC (Staphylococcus aureus [7]) of 16 µg/mL (≈ 77.2 µM), an MIC (Staphylococcus aureus [8]) of 32 µg/mL (≈ 154 µM) and an MIC (Staphylococcus aureus [9]) of 16 µg/mL (≈ 77.2 µM). The MIC (Staphylococcus aureus [10]) was 8 µg/mL (≈ 38.6 µM), the MIC (Staphylococcus aureus [11]) was 16 µg/mL (≈ 77.2 µM) and the MIC (Staphylococcus aureus [12]) was 16 µg/mL (≈ 77.2 µM). The MIC (Staphylococcus aureus [13]) was 16 µg/mL (≈ 77.2 µM), the MIC (Staphylococcus aureus [14]) was 8 µg/mL (≈ 38.6 µM) and the MIC (Staphylococcus aureus [15]) was 8 µg/mL (≈ 38.6 µM). For the same molecule, the MIC (Staphylococcus aureus [16]) was 16 µg/mL (≈ 77.2 µM), the MIC (Staphylococcus aureus [17]) was 16 µg/mL (≈ 77.2 µM) and the MIC (Staphylococcus aureus [18]) was 8 µg/mL (≈ 38.6 µM). The MIC (Staphylococcus aureus [19]) was 64 µg/mL (≈ 309 µM), the MBC (Staphylococcus aureus [20]) was 256 µg/mL (≈ 1240 µM) and the MBC (Staphylococcus aureus [21]) was 256 µg/mL (≈ 1240 µM). The MIC50 (Staphylococcus aureus [22]) was 32 µg/mL (≈ 154 µM), the MIC90 (Staphylococcus aureus [22]) was 64 µg/mL (≈ 309 µM) and the MIC (Staphylococcus aureus [23]) was 8 µg/mL (≈ 38.6 µM). The MIC (Staphylococcus aureus [24]) was 8 µg/mL (≈ 38.6 µM), the MIC (Staphylococcus aureus [25]) was 32 µg/mL (≈ 154 µM) and the MIC (Staphylococcus aureus [26]) was 16 µg/mL (≈ 77.2 µM). The MIC (Staphylococcus aureus [27]) was 8 µg/mL (≈ 38.6 µM), the MIC (Helicobacter pylori [28]) was 32 µg/mL (≈ 154 µM) and the MIC (Helicobacter pylori [29]) was 32 µg/mL (≈ 154 µM). The MIC (Staphylococcus aureus [30]) was 64 µg/mL (≈ 309 µM), the MIC (Staphylococcus aureus [31]) was 16 µg/mL (≈ 77.2 µM) and the MIC (Helicobacter pylori [32]) was 32 µg/mL (≈ 154 µM). For the same molecule, the MIC (Staphylococcus aureus [33]) was 16 µg/mL (≈ 77.2 µM), the MIC (Staphylococcus aureus [34]) was 16 µg/mL (≈ 77.2 µM) and the MIC (Staphylococcus aureus [35]) was 16 µg/mL (≈ 77.2 µM). The MIC (Helicobacter pylori [36]) was 16 µg/mL (≈ 77.2 µM), the MIC (Staphylococcus aureus [37]) was 16 µg/mL (≈ 77.2 µM) and the MIC (Staphylococcus aureus [38]) was 16 µg/mL (≈ 77.2 µM). For the same molecule, the MIC (Staphylococcus aureus [39]) was 32 µg/mL (≈ 154 µM), the MBC (Staphylococcus aureus [40]) was 128 µg/mL (≈ 618 µM) and the MIC (Staphylococcus aureus [41]) was 16 µg/mL (≈ 77.2 µM). It also gave an MIC (Staphylococcus aureus [42]) of 16 µg/mL (≈ 77.2 µM) and an MIC (Staphylococcus aureus [43]) of 32 µg/mL (≈ 154 µM).
